# Data from patent publication US20240246937A1 (MERCK SHARP & DOHME LLC, priority 2021, published 2024).
# Target: recombinant IL4I1 (Homo sapiens (Human), UniProt Q96RQ9)
# Experiment: IL4I1 Enzymatic Assay (Amplex Red/HRP coupled fluorescence detection of H2O2)
# Format: biochemical
# Details: 240 min; recombinant IL4I1, four-hour pre-incubation with compound
# Protocol: Interleukin 4 inducible protein 1 (IL4I1) is an L-amino oxidase that catalyzes the oxidation of aromatic residues (Phe, Trp and Tyr): L-amino acid+H2O+O2→2-oxo acid+NH3+H2O2. Equal molar of H2O2 and the corresponding alpha-ketoacid are produced when IL4I1 and substrate are added. In this assay, the hydrogen peroxide generated by IL4I1 is then detected through a coupled reaction with Amplex® Red (10-acetyl-3,7-dihydroxyphenoxazine) and horseradish peroxidase (HRP) to produce resorufin product that could be detected in the form of fluorescence signals. The assessment of the inhibitory effect of small molecules (EC50) on IL4I1 is measured by the effectiveness of the compounds to inhibit the production of H2O2.
# Using this assay, the potency (EC50) of each compound was determined from a ten-point (1:3 serial dilution) titration curve using the following outlined procedure. To each well of a black flat-bottom Greiner (Cat #781076) 384 well-plate, 25 nL of compound (0.1% DMSO in final assay volume of 25 μL) was dispensed, followed by the addition of 12.5 μL of 1× assay buffer (50 mM Hepes 7.0 and 0.005% Tween20 (Sigma, Cat #P8341; low peroxide grade)) containing 2 nM of recombinant IL4I1 (R&D Systems, Cat #5684-AO-020). Plates were placed in an ambient temperature humidified chamber for a four-hour pre-incubation with compound. Subsequently, each reaction was initiated by the addition of 12.5 μL 1× assay buffer containing 2 mM of each aromatic amino acids (Phe/Tyr/Trp), 0.1 mM Amplex Red and 2 U/mL of HRP. The final reaction in each well of 25 μL consisted of 1 nM of IL4I1, 1 mM of each residues (Phe, Tyr and Trp), 0.05 mM Amplex Red and 1 U/mL of HRP. It should be noted that the concentrations of Amplex Red and HRP used here were in excess such that the conversion of H2O2 to resorufin product occurred instantaneously and was non-rate limiting. Reactions were allowed to proceed for 120 minutes followed by fluorescence readout on a Spectramax with the following set parameters: 544 nm excitation/590 nm emission, 570 nm cutoff (EnVision is an alternative reader). Dose-response curves were generated by plotting percent effect (% product conversion; Y-axis) vs. Log10 compound concentrations (X-axis). EC50 values were calculated using a non-linear regression, four-parameters sigmoidal dose-response model and are shown in Potency Table 1.
# recombinant IL4I1, sequence (Q96RQ9 22-567): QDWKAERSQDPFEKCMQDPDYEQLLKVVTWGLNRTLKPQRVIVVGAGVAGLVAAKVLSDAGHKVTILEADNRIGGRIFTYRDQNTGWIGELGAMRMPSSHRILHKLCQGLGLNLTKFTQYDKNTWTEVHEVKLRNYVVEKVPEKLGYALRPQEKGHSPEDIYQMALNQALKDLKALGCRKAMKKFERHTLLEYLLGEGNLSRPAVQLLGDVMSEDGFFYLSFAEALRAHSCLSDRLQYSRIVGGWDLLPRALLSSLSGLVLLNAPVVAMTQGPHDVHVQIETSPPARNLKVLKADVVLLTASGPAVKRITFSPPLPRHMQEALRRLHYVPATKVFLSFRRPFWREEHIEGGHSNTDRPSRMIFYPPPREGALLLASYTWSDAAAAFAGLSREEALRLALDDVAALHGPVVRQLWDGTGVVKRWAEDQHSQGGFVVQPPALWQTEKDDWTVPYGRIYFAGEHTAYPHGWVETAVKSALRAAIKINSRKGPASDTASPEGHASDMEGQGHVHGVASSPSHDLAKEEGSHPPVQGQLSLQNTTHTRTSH
row,SMILES,EC50 [nM]
1,"O=C1C(=O)N(C2CCCC2)CCN1Cc1ccc(-c2cnco2)nc1 [Example 18, 1-cyclopentyl-4-((6-(oxazol-5-yl)pyridin-3-yl)methyl)piperazine-2,3-dione]",41
2,"O=C1C(=O)N(C2CCCC2)CCN1Cc1ccc(-c2cncs2)cc1F [Example 19, 1-cyclopentyl-4-(2-fluoro-4-(thiazol-5-yl)benzyl)piperazine-2,3-dione]",7
3,"O=C1C(=O)N(C2CCC2)CCN1Cc1ccc(-c2cccc(F)c2)nn1 [Example 20, 1-cyclobutyl-4-((6-(3-fluorophenyl)pyridazin-3-yl)methyl)piperazine-2,3-dione]",5
4,"O=C1C(=O)N(C2CCC2)CCN1Cc1ccc(-c2cccc(F)c2F)nn1 [Example 21, 1-cyclobutyl-4-((6-(2,3-difluorophenyl)pyridazin-3-yl)methyl)piperazine-2,3-dione]",14
5,"O=C1C(=O)N(C2CCC2)CCN1Cc1ccc(-c2cc(F)cc(F)c2)nn1 [Example 22, 1-cyclobutyl-4-((6-(3,5-difluorophenyl)pyridazin-3-yl)methyl)piperazine-2,3-dione]",22
6,"O=C1C(=O)N(C2CCCC2)CCN1Cc1ccc(-c2cn[nH]c2)cc1F [Example 23, 1-cyclopentyl-4-(2-fluoro-4-(1H-pyrazol-4-yl)benzyl)piperazine-2,3-dione]",21
7,"O=C1C(=O)N(C2CCCC2)CCN1Cc1ccc(-c2cn[nH]c2)nc1 [Example 24, 1-((6-(1H-pyrazol-4-yl)pyridin-3-yl)methyl)-4-cyclopentylpiperazine-2,3-dione]",30
8,"O=C1C(=O)N(C2CCC2)CCN1Cc1ccc(-c2cn[nH]c2)nn1 [Example 25, 1-((6-(1H-pyrazol-4-yl)pyridazin-3-yl)methyl)-4-cyclobutylpiperazine-2,3-dione]",21
9,"O=C1C(=O)N(C2CCC2)CCN1Cc1ccc(-c2ccccc2)cn1 [Example 26, 1-cyclobutyl-4-((5-phenylpyridin-2-yl)methyl)piperazine-2,3-dione]",6
10,"O=C1C(=O)N(C2CCC2)CCN1Cc1nnc(-c2cccc(F)c2)s1 [Example 27, 1-cyclobutyl-4-((5-(3-fluorophenyl)-1,3,4-thiadiazol-2-yl)methyl)piperazine-2,3-dione]",5
11,"O=c1c(=O)n(C2CCC2)ccn1Cc1nnc(-c2cccc(F)c2)s1 [Example 28, 1-cyclobutyl-4-((5-(3-fluorophenyl)-1,3,4-thiadiazol-2-yl)methyl)-1,4-dihydropyrazine-2,3-dione]",8
12,"O=C1C(=O)N(C2CCC2)CCN1Cc1nnc(-c2ccc(F)cc2)s1 [Example 29, 1-cyclobutyl-4-((5-(4-fluorophenyl)-1,3,4-thiadiazol-2-yl)methyl)piperazine-2,3-dione]",9
13,"O=c1c(=O)n(C2CCC2)ccn1Cc1nnc(-c2ccc(F)cc2)s1 [Example 30, 1-cyclobutyl-4-((5-(4-fluorophenyl)-1,3,4-thiadiazol-2-yl)methyl)-1,4-dihydropyrazine-2,3-dione]",8
14,"O=C1C(=O)N(C23CC(C2)C3)CCN1Cc1nnc(-c2ccccc2F)s1 [Example 31, 1-(bicyclo[1.1.1]pentan-1-yl)-4-((5-(2-fluorophenyl)-1,3,4-thiadiazol-2-yl)methyl)piperazine-2,3-dione]",6
15,"O=C1C(=O)N(C23CC(C2)C3)CCN1Cc1nnc(-c2ccc(F)cc2)s1 [Example 32, 1-(bicyclo[1.1.1]pentan-1-yl)-4-((5-(4-fluorophenyl)-1,3,4-thiadiazol-2-yl)methyl)piperazine-2,3-dione]",5
16,"O=C1C(=O)N(C2CCC2)CCN1Cc1nnc(-c2ccccc2F)s1 [Example 33, 1-cyclobutyl-4-((5-(2-fluorophenyl)-1,3,4-thiadiazol-2-yl)methyl)piperazine-2,3-dione]",8
17,"O=C1C(=O)N(C2CC3CC3C2)CCN1Cc1nnc(-c2ccc(F)cc2)s1 (stereo not drawn) [Example 40, 1-((cis)-bicyclo[3.1.0]hexan-3-yl)-4-((5-(4-fluorophenyl)-1,3,4-thiadiazol-2-yl)methyl)piperazine-2,3-dione]",4

# Results, then the compound that gave them:
row,EC50 [nM],SMILES
1,34,"O=c1c(=O)n(C2CCC2)ccn1Cc1nnc(-c2ccccc2F)s1 [Example 34, 1-cyclobutyl-4-((5-(2-fluorophenyl)-1,3,4-thiadiazol-2-yl)methyl)-1,4-dihydropyrazine-2,3-dione]"
2,3,"O=c1c(=O)n(C2CCCC2)ccn1Cc1nnc(-c2ccc(F)cc2)s1 [Example 35, 1-cyclopentyl-4-((5-(4-fluorophenyl)-1,3,4-thiadiazol-2-yl)methyl)-1,4-dihydropyrazine-2,3-dione]"
3,6,"O=c1c(=O)n(C23CC(C2)C3)ccn1Cc1nnc(-c2ccc(F)cc2)s1 [Example 36, 1-(bicyclo[1.1.1]pentan-1-yl)-4-((5-(4-fluorophenyl)-1,3,4-thiadiazol-2-yl)methyl)-1,4-dihydropyrazine-2,3-dione]"
4,18,"O=C1C(=O)N(C2CCCC2)CCN1Cc1ccc(-c2cccnc2)nn1 [Example 37, 1-cyclopentyl-4-((6-(pyridin-3-yl)pyridazin-3-yl)methyl)piperazine-2,3-dione]"
5,23,"O=C1C(=O)N(C23CC(C2)C3)CCN1Cc1ccc(-c2ccccc2)nn1 [Example 38, 1-(bicyclo[1.1.1]pentan-1-yl)-4-((6-phenylpyridazin-3-yl)methyl)piperazine-2,3-dione]"
6,3,"O=c1c(=O)n([C@H]2C[C@H]3C[C@H]3C2)ccn1Cc1nnc(-c2ccccc2)s1 [Example 39, 1-((cis)-bicyclo[3.1.0]hexan-3-yl)-4-((5-phenyl-1,3,4-thiadiazol-2-yl)methyl)-1,4-dihydropyrazine-2,3-dione]"
7,2,"O=c1c(=O)n([C@H]2C[C@H]3C[C@H]3C2)ccn1Cc1nnc(-c2ccc(F)cc2)s1 [Example 41, 1-((cis)-bicyclo[3.1.0]hexan-3-yl)-4-((5-(4-fluorophenyl)-1,3,4-thiadiazol-2-yl)methyl)-1,4-dihydropyrazine-2,3-dione]"
8,5,"O=C1C(=O)N([C@H]2C[C@H]3C[C@H]3C2)CCN1Cc1nnc(-c2cccc(F)c2)s1 [Example 42, 1-((cis)-bicyclo[3.1.0]hexan-3-yl)-4-((5-(3-fluorophenyl)-1,3,4-thiadiazol-2-yl)methyl)piperazine-2,3-dione]"
9,3,"O=c1c(=O)n([C@H]2C[C@H]3C[C@H]3C2)ccn1Cc1nnc(-c2cccc(F)c2)s1 [Example 43, 1-((cis)-bicyclo[3.1.0]hexan-3-yl)-4-((5-(3-fluorophenyl)-1,3,4-thiadiazol-2-yl)methyl)-1,4-dihydropyrazine-2,3-dione]"
10,7,"O=C1C(=O)N([C@H]2C[C@H]3C[C@H]3C2)CCN1Cc1nnc(-c2ccccc2F)s1 [Example 44, 1-((cis)-bicyclo[3.1.0]hexan-3-yl)-4-((5-(2-fluorophenyl)-1,3,4-thiadiazol-2-yl)methyl)piperazine-2,3-dione]"
11,5,"O=c1c(=O)n([C@H]2C[C@H]3C[C@H]3C2)ccn1Cc1nnc(-c2ccccc2F)s1 [Example 45, 1-((cis)-bicyclo[3.1.0]hexan-3-yl)-4-((5-(2-fluorophenyl)-1,3,4-thiadiazol-2-yl)methyl)-1,4-dihydropyrazine-2,3-dione]"
12,13,"O=C1C(=O)N(C2CCCC2)CCN1Cc1cnc(-c2ccccc2F)cn1 [Example 46, 1-cyclopentyl-4-((5-(2-fluorophenyl)pyrazin-2-yl)methyl)piperazine-2,3-dione]"
13,3,"O=c1c(=O)n([C@H]2C[C@H](c3ccccc3)C2)ccn1Cc1nnc(-c2ccccc2)s1 [Example 47, 1-((5-phenyl-1,3,4-thiadiazol-2-yl)methyl)-4-((trans)-3-phenylcyclobutyl)-1,4-dihydropyrazine-2,3-dione]"
14,2,"O=c1c(=O)n([C@H]2C[C@@H](c3ccccc3)C2)ccn1Cc1nnc(-c2ccccc2)s1 [Example 48, 1-((5-phenyl-1,3,4-thiadiazol-2-yl)methyl)-4-((cis)-3-phenylcyclobutyl)-1,4-dihydropyrazine-2,3-dione]"
15,3,"O=c1c(=O)n(C2CCC2)ccn1Cc1ccc(-c2ccccc2F)nn1 [Example 49, 1-cyclobutyl-4-((6-(2-fluorophenyl)pyridazin-3-yl)methyl)-1,4-dihydropyrazine-2,3-dione]"
16,4,"O=c1c(=O)n([C@H]2C[C@H]3C[C@H]3C2)ccn1Cc1ccc(-c2ccccc2F)nn1 [Example 50, 1-((cis)-bicyclo[3.1.0]hexan-3-yl)-4-((6-(2-fluorophenyl)pyridazin-3-yl)methyl)-1,4-dihydropyrazine-2,3-dione]"
